“Also recorded” adds a separate entry of the source.
What was measured:
[1] = tested on: CYP (any CYP); test: CYP inhibition; conditions: on any CYP
[2] = PK analysis of fixed dose combinations vs single agents, single dose in healthy volunteers; assay type: in vivo, human; conditions: Arm 2 (FDC02) vs reference (Arm 1); 90% CI in the row below
Procedure: SMV (100 mg), ODV (50 mg), and Compound (III) (800 mg) were administered as three different formulations or together as single doses in vivo to healthy volunteers. The arms of the study included: • Arm 1 (Reference Arm): Single oral doses of single agents, one SMV 100-mg capsule, one ODV 50-mg tablet as granule layered solid dispersion with copovidone and poloxamers, and two Compound (III) 400-mg tablets, administered together. • Arm 2: Single oral dose of fixed dose combination (FDC02): SMV 100 mg+ODV 50 mg as a spray dried solid dispersion with HPMC-AS L in a ratio ODV/HPMC-AS L 1/1 w/w+Compound (III) 800 mg • Arm 3: Single oral dose of fixed dose combination (FDC04): SMV 100 mg+ODV 50 mg as a spray dried solid dispersion with HPMC-AS L in a ratio ODV/HPMC-AS L 1/3 w/w+Compound (III) 800 mg • Arm 4: Single oral dose of fixed dose combination (FDC01): SMV 100 mg+ODV 50 mg as a spray dried solid dispersion with copovidone and poloxamers+Compound (III) 800 mg
PK parameters, including Cmax, tmax, AUClast, and AUC∞ were measured for Compound (III), ODV, SMV, and metabolites Compound A-I and Compound A-3 for each Arm of the study. Arms that included fixed dose combinations (FDC) (Arm 2, Arm 3, and Arm 4) were then compared to a single oral dose (Arm 1, the reference Arm). […]

[3] = target: MRP3 (Homo sapiens, UniProt O15438); conditions: MRP2/3; cited from earlier work
Chain of MRP3 (O15438 whole entry): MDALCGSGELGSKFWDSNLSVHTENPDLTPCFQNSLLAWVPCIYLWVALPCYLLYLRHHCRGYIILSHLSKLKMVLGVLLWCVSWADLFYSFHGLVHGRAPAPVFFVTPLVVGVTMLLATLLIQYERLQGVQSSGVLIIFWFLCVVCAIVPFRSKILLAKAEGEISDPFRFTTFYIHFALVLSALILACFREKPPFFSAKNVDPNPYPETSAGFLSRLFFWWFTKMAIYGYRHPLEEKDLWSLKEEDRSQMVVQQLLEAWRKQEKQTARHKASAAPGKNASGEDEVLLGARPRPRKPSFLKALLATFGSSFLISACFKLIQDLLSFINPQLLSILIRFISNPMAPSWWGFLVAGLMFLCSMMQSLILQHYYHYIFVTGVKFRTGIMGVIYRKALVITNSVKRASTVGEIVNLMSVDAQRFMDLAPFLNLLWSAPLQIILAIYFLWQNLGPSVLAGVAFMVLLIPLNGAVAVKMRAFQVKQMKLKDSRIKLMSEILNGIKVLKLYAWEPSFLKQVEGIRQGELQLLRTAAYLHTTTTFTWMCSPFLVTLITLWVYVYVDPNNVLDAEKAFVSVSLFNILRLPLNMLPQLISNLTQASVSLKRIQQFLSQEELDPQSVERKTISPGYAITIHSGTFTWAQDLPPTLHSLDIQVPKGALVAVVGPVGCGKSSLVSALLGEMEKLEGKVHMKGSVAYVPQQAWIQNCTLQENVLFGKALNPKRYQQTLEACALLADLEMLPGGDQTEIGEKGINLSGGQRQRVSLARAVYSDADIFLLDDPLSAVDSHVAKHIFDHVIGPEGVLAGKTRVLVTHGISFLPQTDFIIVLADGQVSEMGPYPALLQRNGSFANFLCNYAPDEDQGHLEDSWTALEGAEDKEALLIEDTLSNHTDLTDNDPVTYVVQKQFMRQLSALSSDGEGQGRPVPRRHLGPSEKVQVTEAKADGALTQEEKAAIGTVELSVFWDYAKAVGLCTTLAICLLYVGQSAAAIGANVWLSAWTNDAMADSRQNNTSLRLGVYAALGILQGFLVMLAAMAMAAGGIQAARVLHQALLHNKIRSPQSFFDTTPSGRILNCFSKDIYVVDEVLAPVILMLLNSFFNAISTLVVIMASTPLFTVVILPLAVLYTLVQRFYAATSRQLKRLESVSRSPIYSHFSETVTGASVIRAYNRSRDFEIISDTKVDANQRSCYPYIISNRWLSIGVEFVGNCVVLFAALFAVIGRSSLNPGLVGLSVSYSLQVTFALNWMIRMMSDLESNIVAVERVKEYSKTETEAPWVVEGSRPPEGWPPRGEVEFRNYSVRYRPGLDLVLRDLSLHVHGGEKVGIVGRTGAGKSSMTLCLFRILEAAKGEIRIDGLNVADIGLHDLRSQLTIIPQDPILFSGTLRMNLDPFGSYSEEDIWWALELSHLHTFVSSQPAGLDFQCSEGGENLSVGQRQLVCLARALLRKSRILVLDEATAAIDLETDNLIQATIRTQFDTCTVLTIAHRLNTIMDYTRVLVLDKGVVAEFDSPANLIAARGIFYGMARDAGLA

[4] = Phase 2a open-label combination study, pharmacokinetics and safety; assay type: in vivo, human; conditions: for change of exposure on reducing ODV dosing from QD to QOD: 50 mg
Procedure: A randomized, Phase 2a, open-label study was carried out to evaluate the safety, pharmacokinetics and efficacy of the combination of Compound (III), Odalasvir and Simeprevir in Genotype 1 treatment-naïve subjects with chronic hepatitis C. Other treatment-naïve subjects included Genotype 2, 3, 4, 5 and 6. The aim of the study was to determine the efficacy, pharmacokinetics (PK), and safety of Compound (III)+Odalasvir±SMV in HCV-infected subjects. […] Efficacy, PK and safety evaluations were conducted during and through 24 weeks post dosing. Up to 15 cohorts were enrolled; data was generated from cohorts that have completed dosing.

[5] = target: MRP2 (Homo sapiens, UniProt Q92887); conditions: MRP2/3; cited from earlier work
Chain of MRP2 (Q92887 whole entry): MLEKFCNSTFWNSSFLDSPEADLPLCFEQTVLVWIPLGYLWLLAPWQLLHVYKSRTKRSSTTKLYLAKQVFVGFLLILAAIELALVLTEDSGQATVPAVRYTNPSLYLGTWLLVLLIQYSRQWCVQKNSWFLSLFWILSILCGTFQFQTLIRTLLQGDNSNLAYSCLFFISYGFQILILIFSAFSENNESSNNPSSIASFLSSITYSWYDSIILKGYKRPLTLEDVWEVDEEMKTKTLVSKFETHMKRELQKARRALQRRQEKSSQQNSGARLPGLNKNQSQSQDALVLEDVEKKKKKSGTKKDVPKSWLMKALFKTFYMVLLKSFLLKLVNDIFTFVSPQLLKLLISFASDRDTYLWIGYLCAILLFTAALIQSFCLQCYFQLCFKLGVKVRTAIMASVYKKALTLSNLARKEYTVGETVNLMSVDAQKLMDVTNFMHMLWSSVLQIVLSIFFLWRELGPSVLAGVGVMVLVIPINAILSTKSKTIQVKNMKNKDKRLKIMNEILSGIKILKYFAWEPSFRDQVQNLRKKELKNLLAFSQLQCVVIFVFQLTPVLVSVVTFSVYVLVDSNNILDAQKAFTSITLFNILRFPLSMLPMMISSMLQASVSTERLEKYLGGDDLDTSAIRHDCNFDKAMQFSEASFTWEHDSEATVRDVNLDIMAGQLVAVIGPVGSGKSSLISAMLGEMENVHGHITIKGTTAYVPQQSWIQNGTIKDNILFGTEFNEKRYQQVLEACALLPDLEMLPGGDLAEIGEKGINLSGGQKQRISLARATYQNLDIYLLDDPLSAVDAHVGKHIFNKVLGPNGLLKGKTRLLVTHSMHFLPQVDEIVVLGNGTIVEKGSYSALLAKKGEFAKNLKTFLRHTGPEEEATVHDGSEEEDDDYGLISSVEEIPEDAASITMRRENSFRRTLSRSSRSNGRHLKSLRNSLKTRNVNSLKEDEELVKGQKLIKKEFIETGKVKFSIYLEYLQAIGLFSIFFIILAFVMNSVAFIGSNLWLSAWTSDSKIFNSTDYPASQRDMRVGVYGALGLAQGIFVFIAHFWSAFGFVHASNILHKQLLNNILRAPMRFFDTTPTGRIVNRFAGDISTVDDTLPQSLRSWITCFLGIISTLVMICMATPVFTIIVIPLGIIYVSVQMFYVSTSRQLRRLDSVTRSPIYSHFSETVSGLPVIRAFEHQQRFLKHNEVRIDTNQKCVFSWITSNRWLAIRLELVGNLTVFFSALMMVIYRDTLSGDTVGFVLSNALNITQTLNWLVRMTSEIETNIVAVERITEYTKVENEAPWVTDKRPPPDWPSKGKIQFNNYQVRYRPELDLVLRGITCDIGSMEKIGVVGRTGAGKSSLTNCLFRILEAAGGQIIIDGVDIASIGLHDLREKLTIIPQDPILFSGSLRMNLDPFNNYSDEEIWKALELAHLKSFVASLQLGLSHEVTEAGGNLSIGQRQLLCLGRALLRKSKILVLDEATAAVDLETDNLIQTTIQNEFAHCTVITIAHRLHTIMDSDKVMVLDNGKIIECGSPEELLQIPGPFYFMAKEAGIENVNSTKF

[6] = target: BSEP (Homo sapiens, UniProt O95342); conditions: cited from earlier work
[7] = target: T1, OATP1B3 (Homo sapiens, UniProt Q9NPD5); conditions: cited from earlier work
T1 sequence (Q9NPD5 1-702): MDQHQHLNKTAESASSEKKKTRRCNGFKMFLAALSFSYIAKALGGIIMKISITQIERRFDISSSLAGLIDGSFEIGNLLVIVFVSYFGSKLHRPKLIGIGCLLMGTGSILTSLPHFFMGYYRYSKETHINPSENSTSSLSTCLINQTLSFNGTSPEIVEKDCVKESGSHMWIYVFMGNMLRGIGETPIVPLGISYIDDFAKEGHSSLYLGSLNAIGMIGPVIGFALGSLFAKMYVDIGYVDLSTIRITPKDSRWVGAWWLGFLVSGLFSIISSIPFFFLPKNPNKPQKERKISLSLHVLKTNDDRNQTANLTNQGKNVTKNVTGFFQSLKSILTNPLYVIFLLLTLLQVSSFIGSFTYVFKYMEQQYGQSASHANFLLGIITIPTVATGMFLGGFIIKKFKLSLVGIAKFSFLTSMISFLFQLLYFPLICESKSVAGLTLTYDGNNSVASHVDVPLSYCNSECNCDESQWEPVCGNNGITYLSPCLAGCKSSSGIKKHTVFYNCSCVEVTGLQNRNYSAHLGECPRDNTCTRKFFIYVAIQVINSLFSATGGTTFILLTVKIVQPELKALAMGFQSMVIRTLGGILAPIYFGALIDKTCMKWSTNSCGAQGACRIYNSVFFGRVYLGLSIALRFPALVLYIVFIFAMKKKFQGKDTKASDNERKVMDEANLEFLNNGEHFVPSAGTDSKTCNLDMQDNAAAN

[8] = target: Pgp (Homo sapiens, UniProt P08183); conditions: cited from earlier work
Chain of Pgp (P08183 whole entry): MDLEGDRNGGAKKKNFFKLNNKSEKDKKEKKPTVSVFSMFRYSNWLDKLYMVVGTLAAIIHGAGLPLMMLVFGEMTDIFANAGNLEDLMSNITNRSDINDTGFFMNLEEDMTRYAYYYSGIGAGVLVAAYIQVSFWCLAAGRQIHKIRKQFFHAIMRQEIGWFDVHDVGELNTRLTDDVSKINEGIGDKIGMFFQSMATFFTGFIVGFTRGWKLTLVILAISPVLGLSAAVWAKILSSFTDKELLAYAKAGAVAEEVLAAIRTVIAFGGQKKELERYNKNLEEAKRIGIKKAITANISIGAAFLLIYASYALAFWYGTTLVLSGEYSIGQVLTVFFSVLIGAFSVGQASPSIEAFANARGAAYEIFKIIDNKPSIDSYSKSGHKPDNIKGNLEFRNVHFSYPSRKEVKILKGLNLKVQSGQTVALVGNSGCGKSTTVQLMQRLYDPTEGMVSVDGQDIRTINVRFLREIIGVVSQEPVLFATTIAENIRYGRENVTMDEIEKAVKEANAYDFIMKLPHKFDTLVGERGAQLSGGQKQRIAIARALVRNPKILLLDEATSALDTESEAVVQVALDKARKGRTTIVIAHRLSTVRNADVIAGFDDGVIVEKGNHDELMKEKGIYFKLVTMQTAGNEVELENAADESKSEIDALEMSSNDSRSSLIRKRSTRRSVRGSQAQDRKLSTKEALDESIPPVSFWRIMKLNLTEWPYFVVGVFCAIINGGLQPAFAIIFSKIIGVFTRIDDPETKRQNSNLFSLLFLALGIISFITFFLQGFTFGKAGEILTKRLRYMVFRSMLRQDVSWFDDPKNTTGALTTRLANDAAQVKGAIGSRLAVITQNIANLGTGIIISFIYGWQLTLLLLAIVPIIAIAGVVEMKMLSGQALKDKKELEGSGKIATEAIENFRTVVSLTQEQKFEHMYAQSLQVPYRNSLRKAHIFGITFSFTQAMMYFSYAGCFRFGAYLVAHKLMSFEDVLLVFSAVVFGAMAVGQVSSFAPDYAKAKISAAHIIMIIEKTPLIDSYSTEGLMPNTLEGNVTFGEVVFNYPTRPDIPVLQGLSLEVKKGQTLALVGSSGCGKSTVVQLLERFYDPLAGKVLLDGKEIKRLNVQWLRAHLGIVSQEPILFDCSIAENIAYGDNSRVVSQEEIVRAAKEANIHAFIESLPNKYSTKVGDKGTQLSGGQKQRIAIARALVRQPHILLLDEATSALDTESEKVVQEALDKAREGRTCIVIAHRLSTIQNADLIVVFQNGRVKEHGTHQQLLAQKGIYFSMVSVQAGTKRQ

Compound | CYP inhibition potential [1] | Least Square Means Ratio, Cmax [2] [%] | inhibition of MRP3 [3] | change of exposure on reducing ODV dosing from QD to QOD [4] | change of exposure on reducing ODV dosing from QD to QOD ([4]; listed as Odalasvir) | observed exposure in Cohort 1 / group (i) ([4]; Compound (III) 400 mg, ODV 50 mg QD, SMV 100 mg QD) | inhibition of MRP2 [5] | inhibition of BSEP [6] | inhibition of OATP1B3 [7] | in vitro inhibition of Pgp [8]
COC(=O)N[C@H](C(=O)N1[C@H](c2nc3cc(-c4cc5ccc4CCc4ccc(c(-c6ccc7[nH]c([C@@H]8C[C@@H]9CCCC[C@@H]9N8C(=O)[C@@H](NC(=O)OC)C(C)C)nc7c6)c4)CC5)ccc3[nH]2)C[C@@H]2CCCC[C@@H]21)C(C)C [ODV, methyl [(2S)-1-[(2S,3aS,7aS)-2-[6-[11-[2-[(2S,3aS,7aS)-1-[(2S)-2-[(methoxycarbonyl)amino]-3-methylbutanoyl]octahydro-1H-indol-2-yl]-1H-benzimidazol-6-yl]tricyclo[8.2.2.2^4,7]hexadeca-1(12),4,6,10,13,15-hexaen-5-yl]-1H-benzimidazol-2-yl]octahydro-1H-indol-1-yl]-3-methyl-1-oxobutan-2-yl]carbamate] | does not inhibit cytochrome P450 enzymes; also recorded: does not inhibit CYP450 activity | 81.00 | no inhibition | decreased ODV exposure proportionally | decreased Odalasvir exposure proportionally | higher than anticipated | no inhibition | no inhibition | no inhibition | –
CC(C)OC(=O)[C@H](C)N[P@](=O)(OC[C@@]1(F)O[C@@H](n2ccc(=O)[nH]c2=O)[C@](C)(O)[C@@H]1O)Oc1ccccc1 [Compound (III), isopropyl ((S)-(((2S,3S,4R,5R)-5-(2,4-dioxo-3,4-dihydropyrimidin-1 (2H)-yl)-2-fluoro-3,4-dihydroxy-4-methyltetrahydrofuran-2-yl)methoxy)(phenoxy)phosphoryl)-L-alaninate] | limited CYP inhibition potential | – | – | – | – | – | – | – | no in vitro inhibition | no in vitro inhibition

From patent US20170319572A1, “COMBINATION DRUG TREATMENT FOR HEPATITIS C INFECTION” (JANSSEN PHARMACEUTICALS, INC., priority 2015, published 2017)
